Measured values from patent publication US8993585B2, “Cyclic amine substituted pyrimidinediamines as PKC inhibitors” (Rigel Pharmaceuticals, Inc., priority 2007, dated 2015).

System: Human primary T cells
Test: IL-2 ELISA, Human Primary T Cell, Anti-CD3+CD28+ (Example 3)
Type: cell-based
Details: Homo sapiens, T-cell, 24 h, anti-CD3+CD28 stimulation
How it was run: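 IL-2 was read by ELISA after stimulation on wells pre-coated with 1 ug/ml αCD3 and 5 μg/ml αCD28. Before this, 100,000 human primary T cells per well spent 1 h at 37 °C with test compound in Yssel's medium. The counter-screen replaced antibody stimulation with PMA (0.5 ng/ml final) and ionomycin (0.1 uM final).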

| SMILES | IC50 [nM] |
| --- | --- |
| CCN1CCc2cc(Nc3ncc(F)c(NC4CC(C)(C)N(C)C(C)(C)C4)n3)ccc21 [II-52] | 5610 |
| COc1cc(Nc2ncc(F)c(N(Cc3ccc4ccccc4c3)C3CC(C)(C)N(C)C(C)(C)C3)n2)cc(OC)c1 [Compound I-314] | 2570 |
| CN1C(C)(C)CC(Nc2nc(Nc3ccc4c(c3)OCc3nccn3-4)ncc2F)CC1(C)C [II-11] | 1320 |
| COc1ccc(Nc2ncc(F)c(N(Cc3ccc4ccccc4n3)C3CC(C)(C)N(C)C(C)(C)C3)n2)cc1OC(F)F [Compound I-321] | 5950 |
| COc1cc(Nc2ncc(F)c(N(Cc3ccc(-c4ccccc4C#N)cc3)C3CC(C)(C)N(C)C(C)(C)C3)n2)cc(OC)c1 [Compound I-325] | 3460 |
| CN1C(C)(C)CC(Nc2nc(Nc3ccc4c(n3)NCCO4)ncc2F)CC1(C)C [II-24] | 11300 |
| COc1cc(O)cc(Nc2ncc(F)c(NC3CC(C)(C)NC(C)(C)C3)n2)c1 [Compound I-453] | 1050 |
| COC(=O)C(C)N1C(C)(C)CC(Nc2nc(Nc3ccc(C)c(C#N)c3)ncc2F)CC1(C)C (stereo not drawn) [Compound I-296] | 1040 |
| CN1C(C)(C)CC(Nc2nc(Nc3cc4c(cc3Cl)OCCO4)ncc2F)CC1(C)C [II-116] | 1470 |
| CN1C(C)(C)CC(Nc2nc(Nc3ccc4c(c3)C(=O)NC4=O)ncc2F)CC1(C)C [II-148] | 990 |

Continued, values first:

| IC50 [nM] | SMILES |
| --- | --- |
| 1010 | COc1cc(Nc2ncc(OC)c(NC3CC(C)(C)N(C)C(C)(C)C3)n2)cc(-n2nnnc2C)c1 [Compound I-424] |
| 3140 | COc1cc(Nc2nc(C)cc(NC3CC(C)(C)N(C)C(C)(C)C3)n2)cc(OC)c1 [IV-2] |
| 5600 | CC1(C)CC(Nc2nc(Nc3ccc4c(c3)oc(=O)n4CCN3CCOCC3)ncc2F)CC(C)(C)N1 [II-168] |
| 1690 | Cc1ccc(C)n1-c1cc(Nc2ncc(F)c(NC3CC(C)(C)NC(C)(C)C3)n2)ccc1OCCN1CCOCC1 [Compound I-441] |
| 2350 | C#Cc1cnc(Nc2cc(OC)cc(OC)c2)nc1NC1CC(C)(C)N(C)C(C)(C)C1 [Compound I-433] |
| 176 | COc1cc(Nc2ncc(F)c(NC3C[C@H](C)N(C)[C@@H](C)C3)n2)cc(-n2nnnc2C)c1 (stereo partly drawn) [IV-1, 5-Fluoro-N2-[3-methoxy-5-(5-methyl-tetrazol-1-yl)]phenyl-N4-(1,2,6,-trimethylpiperidin-4-yl)-2,4-pyrimidinediamine, trans isomer] |
| 1840 | CN1C(C)(C)CC(Nc2nc(Nc3cc4c(cc3Cl)OCO4)ncc2F)CC1(C)C [II-115] |
| 1720 | CN1C(=O)CCc2cc(Nc3ncc(F)c(NC4CC(C)(C)N(C)C(C)(C)C4)n3)ccc21 [II-4] |
| 2940 | CCn1c(=O)oc2ccc(Nc3ncc(F)c(NC4CC(C)(C)NC(C)(C)C4)n3)cc21 [II-174] |

Same assay, conditions: anti-CD3+CD28 stimulation, 24 hours

| SMILES | IC50 [nM] |
| --- | --- |
| CN1C(C)(C)CC(Nc2nc(Nc3cccc(-n4cnnn4)c3)ncc2C#N)CC1(C)C [Compound I-405] | 240 |
| COc1ccc(Nc2ncc(F)c(NC3CC(C)(C)N(C)C(C)(C)C3)n2)cc1-c1ccoc1 [Compound I-183] | 901 |
| CCOC(=O)c1cnc(Nc2ccc(N3CCN(S(C)(=O)=O)CC3)c(C(F)(F)F)c2)nc1NC1CC(C)(C)N(C)C(C)(C)C1 [Compound I-83] | 7760 |
| COc1cc(Nc2ncc(F)c(NC3CC(C)(C)N(C)C(C)(C)C3)n2)cc(C(F)(F)F)c1 [Compound I-145] | 897 |
| Cc1cnc(Nc2ccc(N3CCN(C)CC3)c(C(F)(F)F)c2)nc1NC1CC(C)(C)N(C)C(C)(C)C1 [Compound I-30] | 335 |
| COc1cc(Nc2ncc(C)c(NC3CC(C)(C)N(C)C(C)(C)C3)n2)cc(OC)c1OC [Compound I-16] | 5280 |
| CC(=O)N1CCN(c2ccc(Nc3ncc(F)c(NC4CC(C)(C)N(C)C(C)(C)C4)n3)cc2C(F)(F)F)CC1 [Compound I-49] | 284 |
| CN1CCN(c2ccc(Nc3ncc(F)c(N(C)C4CC(C)(C)N(C)C(C)(C)C4)n3)cc2C(F)(F)F)CC1 [Compound I-59] | 911 |
| CN1C(C)(C)CC(Nc2nc(Nc3cccc(C(N)=O)c3)ncc2F)CC1(C)C [Compound I-24] | 1520 |
| CCCN1C(=O)C2(CCC2)Oc2cc(Nc3ncc(F)c(NC4CC(C)(C)N(C)C(C)(C)C4)n3)ccc21 [II-166] | 440 |
| CN1C(C)(C)CC(Nc2nc(Nc3cc(OCC(F)(F)F)cc(OCC(F)(F)F)c3)ncc2C(N)=O)CC1(C)C [Compound I-406] | 480 |
| CN1C(C)(C)CC(Nc2nc(Nc3ccc(NC(=O)c4ccco4)c(C(F)(F)F)c3)ncc2F)CC1(C)C [Compound I-355] | 893 |
| Cc1ccc(Nc2ncc(F)c(NC3CC(C)(C)N(C)C(C)(C)C3)n2)cc1-c1cc2ccccc2s1 [Compound I-189] | 1220 |
| COc1cc(Nc2ncc(F)c(NC3CC(C)(C)NC(C)(C)C3)n2)cc(OC)c1 [Compound I-371] | 550 |
| CCOC(=O)c1cnc(Nc2ccc(OC)c(Cl)c2)nc1NC1CC(C)(C)N(C)C(C)(C)C1 [Compound I-80] | 2690 |
| CCNC(=O)Nc1ccc(Nc2ncc(F)c(NC3CC(C)(C)N(C)C(C)(C)C3)n2)cc1 [Compound I-149] | 4360 |
| CN1C(C)(C)CC(Nc2nc(Nc3cc(F)cc(F)c3)ncc2F)CC1(C)C [Compound I-354] | 595 |
| CN1C(C)(C)CC(Nc2nc(Nc3ccc4c(c3)OCCO4)ncc2C#N)CC1(C)C [II-60] | 717 |
| CN1CCN(c2ccc(Nc3ncc(F)c(N(C)C4CC(C)(C)N(C)C(C)(C)C4)n3)cc2Cl)CC1 [Compound I-60] | 524 |
| COc1ccc(Nc2ncc(F)c(NC3CC(C)(C)N(C)C3(C)C)n2)cc1Cl (stereo not drawn) [Compound I-280, 5-Fluoro-N2-(3-chloro-4-methoxy)phenyl-N4-(1,2,2,5,5-pentamethylpyrrolidin-3-yl)-2,4-pyrimidinediamine] | 2730 |
| COc1cc(Nc2ncc(F)c(NC3CC(C)(C)N(C)C(C)(C)C3)n2)cc(OC)c1 [Compound I-307] | 327 |
| COc1ccc(Nc2ncc(Br)c(NC3CC(C)(C)N(C)C(C)(C)C3)n2)cc1C(F)(F)F [Compound I-272] | 826 |

Next, values leading:

| IC50 [nM] | SMILES |
| --- | --- |
| 4300 | CN1C(C)(C)CCC(Nc2nc(Nc3ccc(N4CCN(S(C)(=O)=O)CC4)c(C(F)(F)F)c3)ncc2F)CC1(C)C (stereo not drawn) [Compound I-264, 5-Fluoro-N2-[4-methylsulfonylpiperazin-lyl-3-trifluoromethyl]phenyl-N4-(1,2,2,7,7-pentamethylazepan-4-yl)-2,4-pyrimidinediamine] |
| 236 | CN1CCN(c2ccc(Nc3ncc(F)c(NC4CC(C)(C)NC(C)(C)C4)n3)cc2C(F)(F)F)CC1 [Compound I-255] |
| 2600 | CN1CCN(C(=O)c2ccc(Nc3ncc(F)c(NC4CC(C)(C)N(C)C(C)(C)C4)n3)cc2C(F)(F)F)CC1 [Compound I-64] |
| 2040 | CN1C(C)(C)CC(Nc2nc(Nc3ccc(Cl)c(Cl)c3)ncc2F)CC1(C)C [Compound I-336] |
| 669 | CN1C(C)(C)CC(Nc2nc(Nc3ccc(-n4cccc4)c(C#N)c3)ncc2C(F)(F)F)CC1(C)C [Compound I-172] |
| 2540 | CN1CC2(C)CN(c3ccc(Nc4ncc(F)c(NC5CC(C)(C)N(C)C(C)(C)C5)n4)cc3C(F)(F)F)CC(C)(C1)C2 [Compound I-259] |
| 4990 | CN1C(C)(C)CC(Nc2nc(Nc3cccc(C#N)c3)ncc2C(N)=O)CC1(C)C [Compound I-86] |
| 3910 | CN1C(C)(C)CC(Nc2nc(Nc3ccc(N4CCN(S(C)(=O)=O)CC4)c(Cl)c3)ncc2C(N)=O)CC1(C)C [Compound I-91] |
| 1030 | CN1C(C)(C)CC(Nc2nc(Nc3ccc(-n4cccc4)c(C#N)c3)ncc2C#N)CC1(C)C [Compound I-206] |
| 701 | CN1C(C)(C)CC(Nc2nc(Nc3ccc(-c4cnn(C)c4)c(F)c3)ncc2F)CC1(C)C [Compound I-150] |
| 4630 | COc1ccc(Nc2ncc(F)c(NC3CC(C)(C)N(C)C(C)(C)C3)n2)cc1OCCN(C)C [Compound I-421] |
| 11700 | COc1ccc(Nc2ncc(F)c(NC3CCC(C)(C)N(C)C(C)(C)C3)n2)cc1OC (stereo not drawn) [Compound I-267, 5-Fluoro-N2-[3,4-dimethoxy]phenyl-N4-(1,2,2,7,7-pentamethylazepan-4-yl)-2,4-pyrimidinediamine] |
| 39 | CN1C(C)(C)CC(Nc2nc(Nc3ccc(N4CCN(S(C)(=O)=O)CC4)c(C(F)(F)F)c3)ncc2F)CC1(C)C [Compound I-48] |
| 25500 | CC(=O)N1C(C)(C)CC(Nc2nc(Nc3ccc(N4CCN(S(C)(=O)=O)CC4)c(C(F)(F)F)c3)ncc2F)CC1(C)C [Compound I-215] |
| 6250 | Cc1nnnn1-c1ccc(Nc2ncc(F)c(NC3CC(C)(C)N(C)C(C)(C)C3)n2)cc1 [Compound I-454] |
| 7680 | Cc1cnc(Nc2ccc(S(N)(=O)=O)cc2)nc1NC1CC(C)(C)N(C)C(C)(C)C1 [Compound I-13] |
| 19600 | COc1ccc(Nc2ncc(F)c(NC3CC(C)(C)N(C(C)=O)C(C)(C)C3)n2)cc1Cl [Compound I-213] |
| 2190 | CN1C(C)(C)CC(Nc2nc(Nc3ccc(N4CCOCC4)c(C(F)(F)F)c3)ncc2F)C1(C)C (stereo not drawn) [Compound I-287, 5-Fluoro-N2-[4-morpholino-3-(trifluoromethyl)]phenyl-N4-(1,2,2,5,5-pentamethylpyrrolidin-3-yl)-2,4-pyrimidinediamine] |
| 4460 | CC1(C)CC(Nc2nc(Nc3cccc(-n4cnnn4)c3)ncc2C(N)=O)CC(C)(C)N1 [Compound I-392] |
| 24700 | COC(=O)/C=C/N1C(C)(C)CC(Nc2nc(Nc3ccc(OC)c(OC)c3)ncc2F)CC1(C)C [Compound I-297] |
| 246 | CN1CCN(c2ccc(Nc3ncc(F)c(NC4CC(C)(C)NC(C)(C)C4)n3)cc2Cl)CC1 [Compound I-256] |
| 1980 | CN1CCN(c2cc(Nc3ncc(F)c(NC4CC(C)(C)N(C)C(C)(C)C4)n3)ccc2Cl)CC1 [Compound I-65] |
| 490 | Cc1cc(Nc2ncc(F)c(NC3CC(C)(C)N(C)C(C)(C)C3)n2)ccc1Br [Compound I-111] |
| 657 | CN1CCN(c2ccc(Nc3ncc([N+](=O)[O-])c(NC4CC(C)(C)N(C)C(C)(C)C4)n3)cc2C(F)(F)F)CC1 [Compound I-74] |
| 806 | CN1C(C)(C)CC(Nc2nc(Nc3ccc(N4CCSCC4)c(C(F)(F)F)c3)ncc2F)CC1(C)C [Compound I-331] |
